Entries after “also recorded” stand apart in the source; their conditions may differ. Blank lines part the entries; values can stand above or below the compound they belong to. Non-standard residues stand in square brackets, D forms with d. Residues, ends and D or L forms follow the SMILES beside them. Aib = CC(C)(N)C(=O)O
Columns and labels:
amyloid beta Aβ1-42 = amyloid beta Aβ1-42 (Homo sapiens, UniProt P05067); conditions: read-out: binding affinity to amyloid beta Aβ1-42; cited from earlier work
Aβ1-42 monomers = target: T1, Aβ1-42 monomers (Homo sapiens, UniProt P05067); assay: Surface Plasmon Resonance (SPR) binding of compound (1) to immobilized Aβ1-42 monomers (Biacore X100)
T1 construct: purchased American Peptide Company, Sunnyvale, CA, USA; host or cells: synthetic peptide
Method: FIG. 1 Represents a graphical illustration of compound (1)'s target affinity to amyloid beta Aβ1-42 monomers using Surface Plasmon Resonance (SPR). Synthetic Aβ1-42 was used for this binding assay performed with a Biacore X100 biosensor instrument equipped with two flow cells. Aβ1-42 was covalently coupled to one flow cell of CM7 sensor chips using an amine coupling kit. HBS-EP was used as assay running buffer. The analyte compound (1) was injected over the sensor chip in concentrations ranging from 0.3 nM up to 1000 nM at a flow rate of 10 μL/min for 180 sec at 25° C. […]
The aim of this experiment was to evaluate the target affinity of compound (1) to misfolded Aβ1-42 monomers. The affinity was determined using in vitro Surface Plasmon Resonance (SPR) technology. […]
The resonance units (RUs) elicited by the compound injected into the ethanolamine control flow cell was set as reference response and subtracted from the RUs elicited by the same compound injected to the Aβ saturated flow cell. […] The dissociation equilibrium constant KD of the analyte to the immobilized Aβ was determined from the steady-state levels estimating the maximum RU Rmax and calculating the KD as the concentration of the compound that elicited one-half of the Rmax.

Aβ1-42 oligomers = target: T2, Aβ1-42 oligomers (Homo sapiens, UniProt P05067); assay: In vitro LTP in hippocampal brain slices superfused with 50 nM Aβ1-42; parameters: species or system mice; conditions: for effect on Aβ1-42 toxicity in in vitro LTP: 50 nM Aβ1-42; for Relative effect size (blocking Aβ1-42 toxicity): control LTP = 100%, Aβ1-42 alone = 0%
T2 construct: host or cells: peptide added to the superfusion solution of hippocampal slices
Method: FIGS. 4A-B. FIG. 4A Illustrates plots from in vitro LTP experiments using rat brain slices that were superfused at 23° C. with 50 nM Aβ1-42 and/or with 10 nM compound (1). The compound (1) solution was added for 90 min before HFS was delivered in the first input (dark grey circles). […] To ensure the validity of the Aβ1-42-mediated effect, interleaved experiments with Aβ1-42 (50 nM, closed circles, n=12) were additionally performed in separate slices. […] Representative field excitatory postsynaptic potentials ([…]) are shown on top. FIG. 4B Represents a graphical illustration of compound (1)'s dose-dependent effects on in vitro LTP in rat brain slices based on LTP experiments shown in FIG. 4A. Toxic Aβ1-42 oligomers formed from 50 nM amyloid beta Aβ1-42 monomers block the LTP response almost entirely (black column). […] This refutes the previous scientific status, which called for an excess of the detoxifying agent. Data are shown as means of 5 experiments (n=5)±standard deviations. For the long-term potentiation (LTP) experiments brain slices from 2 months old mice were used. Transverse hippocampal slices (350 μm thick) were obtained after decapitation under isoflurane-anesthesia. All slices were placed in a holding chamber for at least 60 min and were then transferred to a super fusing chamber for extracellular recordings. The flow rate of the solution through the chamber was 4 ml/min. […] All experiments were performed at room temperature. Aβ1-42 stock solution in DMSO was added to the bath solution to give a final concentration of 50 nM. Extracellular recordings of field excitatory postsynaptic potentials (fEPSPs) were obtained from the dendritic region of the CA1 region of the hippocampus using glass micropipettes filled with superfusion solution. For all recordings both stimulating electrodes were used to utilize the input specificity of LTP and thereby allow the measurement of an internal control within the same slice. Steady baseline recordings were made for at least 30 minutes before application of tetanic stimuli. For LTP induction, high-frequency stimulation (HFS) conditioning pulses (100 Hz/1 s; 4-5 V) were applied to the Schaffer collateral commissural pathway via two independent inputs. Before inducing LTP, Aβ1-42 has been applied for 90 min. HFS was delivered from one of the electrodes under conditions in the presence of Compound (1) and potentiation of the responses was monitored for at least 60 min after the tetanus. Either Aβ1-42 was then applied via the bath solution for 90 min before attempting to induce LTP in the second input following HFS delivered via the second electrode. Amplified fEPSPs were filtered (3 kHz), digitized (15 kHz), measured and plotted (FIG. 4A). Measurements of the slope of the fEPSP were taken between 20% and 80% of the peak amplitude. Slopes of fEPSPs were normalized with respect to the 20 min control period before tetanic stimulation. Compound (1) was used at various concentrations in these LTP experiments. […] FIG. 4B summarizes the effects of different compound (1) concentrations leading to different stoichiometric Aβ1-42/compound (1) ratios (10:1, 2:1, 1:5). The LTP signals (fEPSP potentiation) calculated as the average of the last 50-60 mins after HFS are presented as a bar diagram. […] The control experiment is defined as 100% normalized LTP response and the toxic effect of 50 nM Aβ1-42 oligomers is defined as 0% normalized LTP change. Using the usual stoichiometric excess for compound (1), namely 500 nM or 100 nM, leads to a weak detoxifying effect of 40.2% and 34.7%, respectively.

oligomeric Aβ1-42 = target: T3, oligomeric Aβ1-42 (Homo sapiens, UniProt P05067); assay: In vivo LTP in anesthetized rats after i.c.v. oligomeric Aβ1-42; parameters: species or system rat; conditions: for PS amplitude 80-90 min after LTP induction: Aβ1-42 alone 138.1±4.1, vehicle 179.2±8.7
T3 construct: Amyloid beta Aβ1-42 has been injected into brain ventricles at a concentration that strongly suppresses LTP; host or cells: peptide solution injected into anesthetized rats
Method: FIG. 3 Represents a graphical illustration of compound (1)'s dose-dependent effects on in vivo LTP in anesthetized rats at very low concentrations. Given are normalized LTP of population spike (PS) amplitude at 80-90 min post theta burst stimulation (TBS). Compound (1) has been administered s.c. at dose of 0.08 mg/kg, 0.4 mg/kg, and 2.0 mg/kg. Amyloid beta Aβ1-42 has been injected into brain ventricles at a concentration that strongly suppresses LTP (black column). […] The aim of this experiment was to evaluate the dose-dependent effects of compound (1) on in vivo LTP in anesthetized rats at very low concentrations. Compound (1) has been administered s.c. at dose of 0.08 mg/kg, 0.4 mg/kg, and 2.0 mg/kg. Amyloid beta Aβ1-42 has been injected into brain ventricles at a concentration that strongly suppresses LTP. […] In animals subject to intracerebroventricular (i.c.v.) injection of 6 μL oligomeric Aβ1-42 solution (1.67 mM) significant deficits in LTP were observed. (FIG. 3). At the end of the recording period, 80-90 min after LTP induction, the PS amplitude following i.c.v. administration of oligomeric Aβ1-42 measured 138.1±4.1% of baseline (n=18), compared to 179.2±8.7% in PBS-injected animals (n=12). In animals subjected to i.c.v injection of 6 μL oligomeric Aβ1-42, 3 different s.c. doses of compound (1), namely 0.08, 0.4 and 2 mg/kg, were administrated before i.c.v. injection of oligomeric Aβ1-42. […] At the end of the recording period, 80-90 min after LTP induction, the PS amplitude following s.c. administration of compound (1) and i.c.v. administration of oligomeric Aβ1-42 measured 170.0±11.9% of baseline (n=7) for the 2 mg/kg dose, 174.7±16.0% of baseline (n=6) for the 0.4 mg/kg dose, and 139.6±13.1% of baseline (n=4) for the 0.08 mg/kg dose, compared to 179.2±8.7% in vehicle-treated controls (n=12) and 138.1±4.1% i.c.v. oligomeric Aβ1-42-injected animals (n=18).

[1] = Pharmacokinetics in the rat brain: microdialysis of brain interstitial fluid (prefrontal cortex), HPLC-MS/MS; type: in vivo
Method: FIG. 2 Represents a graphical illustration of compound (1)'s pharmacokinetics in the rat brain. Compound (1) was administered as subcutaneous (s.c.) injection at doses of 0.4 mg/kg (∇) and […] (O, Δ). A microdialysis probe has been placed in the prefrontal cortex of these adult male Sprague Dawley rats to measure the concentration of compound (1) in the brain interstitial fluid (ISF) using a HPLC system with MS/MS detector. The dialysate samples were collected at a flow rate of 0.10 μL/min with a carrier flow rate of 0.8 μL/min. The animals were either anesthetized or awake and freely moving. Microdialysis data over a period of 360 min are depicted on a linear scale as means of 4 measurements±SEM.
The aim of this experiment was to evaluate the pharmacokinetics of compound (1) in the rat brain. Compound (1) was administered subcutaneously to anesthetized or awake and freely moving animals. A microdialysis probe has been placed in the prefrontal cortex of these adult male Sprague Dawley rats to measure the concentration of compound (1) in the brain interstitial fluid (ISF) using a HPLC system with MS/MS detector.

T3 sequence (P05067 672-713 limits assumed): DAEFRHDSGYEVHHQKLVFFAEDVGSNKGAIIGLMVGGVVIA
T2 sequence (P05067 672-713 limits assumed): as above
T1 sequence (P05067 672-713 limits assumed): as above
amyloid beta Aβ1-42, sequence (P05067 672-713 limits assumed): as above

Compound: CC(C)(NC(=O)C(N)Cc1c[nH]c2ccccc12)C(=O)O (stereo not shown) [GAL-101, 2-[2-Amino-3-(1H-indol-3-yl)-propionylamino]-2-methyl-propionic acid]
Kd (amyloid beta Aβ1-42): 28.9 ± 2.9 nM

Kd (Aβ1-42 monomers; SPR steady state, 25° C, HBS-EP, 0.3-1000 nM, n=4, read-out: KD (dissociation constant) at Aβ1-42 monomers): 2.5 ± 0.6 nM | affinity to the target compared to GAL-101 (fold stronger) (Aβ1-42 monomers; compound (1) vs GAL-101): 4 fold | LTP induction in presence of compound alone (Aβ1-42 oligomers; 10 nM compound (1), 90 min before HFS, no Aβ1-42): allowed the induction of LTP | effect on Aβ1-42-suppressed in vivo LTP (oligomeric Aβ1-42; 0.08 mg/kg s.c.): loss of the pharmacological effect | PS amplitude 80-90 min after LTP induction (oligomeric Aβ1-42; 0.08 mg/kg s.c. + i.c.v. oligomeric Aβ1-42, n=4): 139.6±13.1 % of baseline | PS amplitude 80-90 min after LTP induction (oligomeric Aβ1-42; 0.4 mg/kg s.c. + i.c.v. oligomeric Aβ1-42, n=6): 174.7±16.0 % of baseline | PS amplitude 80-90 min after LTP induction (oligomeric Aβ1-42; 2 mg/kg s.c. + i.c.v. oligomeric Aβ1-42, n=7): 170.0±11.9 % of baseline | peak brain concentration (extracellular space of the brain) ([1]; s.c. 0.4 mg/kg): 10 nM | brain concentration (brain ISF) ([1]; s.c. 2 mg/kg): ca. 60 nM
Compound: CC(C)(NC(=O)[C@H](N)Cc1c[nH]c2ccccc12)C(N)=O [compound (1), (2R)-2-amino-N-(1-carbamomyl-1-methlyethyl)-3-(1H-indol-3-yl) propanamide] (H-[dW]-[Aib]-NH2)
effect on Aβ1-42 toxicity in in vitro LTP (Aβ1-42 oligomers; 10 nM compound (1)): best prevented the detrimental effect of 50 nM Aβ1-42 on hippocampal LTP; also recorded: able to prevent LTP blockade; also recorded: blocks Aβ1-42 toxicity almost completely | Relative effect size (blocking Aβ1-42 toxicity) (Aβ1-42 oligomers; 10 nM compound (1), 50 nM Aβ1-42, ratio 1:5): 88.1% | effect on Aβ1-42 toxicity in in vitro LTP (Aβ1-42 oligomers; 100 nM compound (1)): only partially alleviate the toxic effect of Aβ1-42 | Relative effect size (blocking Aβ1-42 toxicity) (Aβ1-42 oligomers; 100 nM compound (1), 50 nM Aβ1-42, ratio 2:1): 34.7% | Relative effect size (blocking Aβ1-42 toxicity) (Aβ1-42 oligomers; 100 nM compound (1), 50 nM Aβ1-42, ratio 2:1, listed as Compound (1)): 34.7% | effect on Aβ1-42 toxicity in in vitro LTP (Aβ1-42 oligomers; 500 nM compound (1)): only partially alleviate the toxic effect of Aβ1-42 | Relative effect size (blocking Aβ1-42 toxicity) (Aβ1-42 oligomers; 500 nM compound (1), 50 nM Aβ1-42, ratio 10:1): 40.2% | Relative effect size (blocking Aβ1-42 toxicity) (Aβ1-42 oligomers; 500 nM compound (1), 50 nM Aβ1-42, ratio 10:1, listed as Compound (1)): 40.2% | detoxifying effect in undersupply compared to stoichiometric excess (Aβ1-42 oligomers; 10-fold undersupply (ratio 1:10) as worded, refers to Table 1): more than double as strong | molecules of Aβ1-42 detoxified by 1 molecule of compound (1) (Aβ1-42 oligomers; efficacy at 10 nM vs 50 nM Aβ1-42): 5 | effect on Aβ1-42-suppressed in vivo LTP (oligomeric Aβ1-42; 0.4 mg/kg s.c.): at least as potent efficacy on LTP; also recorded: fully restored LTP signal; also recorded: brought post-TBS responses towards those observed in control animals | effect on Aβ1-42-suppressed in vivo LTP (oligomeric Aβ1-42; 2 mg/kg s.c.): brought post-TBS responses towards those observed in control animals; also recorded: normalizes the LTP signal
